These results are taken from US5442111A, “3,5-di-tetriary-4-butyl-4-hydroxyphenyloxy- or tioalkylene N-hydroxyamides, N-hydroxythioamides, N-hydroxyureas, and N-hydroxythioureas as 5-lipoxygenase inhibitors” (Warner-Lambert Company, priority 1991, dated 1995).

SMILES strings stand for the structures.

In the assay the test system is 5-lipoxygenase. Kind of assay: ARBL whole cell 5-lipoxygenase assay (LTB4 formation in RBL-1 cells stimulated with calcium ionophore A23187, RIA). The assay is classed as cell-based. The conditions noted are these: @ 10^-6 (concentration unit not given); rat RBL-1 whole cells, A23187 5 μM, 10 min preincubation. The method, then: ARBL WHOLE CELL 5-LIPOXYGENASE ASSAY
The rat basophilic leukemia cell line (RBL-1) was obtained from the American Type Culture Collection (Rockville, Md.).
A radioimmunoassay (RIA) kit of LTB was obtained from Amersham (Arlington Heights, Ill.) and Seragen (Boston, Mass.), respectively.
RBL-1 cells are grown in suspension culture in Eagle's minimum essential medium supplemented with 12% fetal bovine serum at 37° C. in an incubator supplied with air-5% carbon dioxide. Cells are harvested by centrifugation. They are washed with cold phosphate buffered saline pH 7.4 (PBS; NaCl, 7.1 g; NaHPO, 1.15 g; KHPO, 0.2 g; and KCl, 0.2 g/l). Cells are finally suspended in PBS containing 1.0 mM calcium at a density of […] cells/ml. Cells are incubated with and without test agent (in DMSO) (1% DMSO is without effect on arachidonic acid metabolism) for ten minutes at room temperature. Calcium ionophore A23187 (5 μM) is added and cells are incubated for seven minutes at 37° C. The reaction is stopped by chilling the tubes on ice for ten minutes. Cells are separated by centrifugation and the supernatant is stored at -20°. Aliquots (100 μl) are analyzed for LTB using the radioimmunoassay kit as provided by the supplier.
The following table contains biochemical data obtained from this whole cell assay as a percentage of inhibition.

Turning to `CNC(=S)N(O)C(C)CSc1cc(C(C)(C)C)c(O)c(C(C)(C)C)c1` (centres unmarked) [Example 1, N-[2-[[3,5-Bis(1,1-dimethylethyl)-4-hydroxyphenyl]thio]-1-methylethyl]-N-hydroxy-N'-methyl Thiourea], the “ARBL @ 10^-6, % inhibition for LTB4” value was 100%.

Consider `CC(CSc1cc(C(C)(C)C)c(O)c(C(C)(C)C)c1)N(O)C(N)=O` (centres unmarked) [Example 2, N-[2-[[3,5-Bis(1,1-dimethylethyl)-4-hydroxyphenyl]thio]-1-methylethyl]-N-hydroxy Urea], for which the “ARBL @ 10^-6, % inhibition for LTB4” value is recorded as 100%.
